Laboratory results: ChEMBL document CHEMBL1201862, “PubChem BioAssay data set” (2004)
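Grown in 96-well plates, cells were treated for 48 hours with each compound at five concentrations. Insufficient inhibition: endpoint recorded as highest concentration tested. At the GI50, growth is halved.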 Calls of active or inactive are those of the source. Rule as the data show it: active = GI50 up to about 1.1 µM and inactive = higher.

Key:
Experiment in all cases: NCI tumour cell line growth inhibition, 48 h
786-0 = test system: 786-0
A549 = test system: A549
BT-549 = test system: BT-549
DU-145 = test system: DU-145
EKVX = test system: EKVX
HCC 2998 = test system: HCC 2998
HCT-116 = test system: HCT-116
HOP-92 = test system: HOP-92
IGROV-1 = test system: IGROV-1
M14 = test system: M14
MCF7 = test system: MCF7
MOLT-4 = test system: MOLT-4
NCI/ADR-RES = test system: NCI/ADR-RES
SF-268 = test system: SF-268
SF-295 = test system: SF-295
SK-MEL-28 = test system: SK-MEL-28
SK-MEL-2 = test system: SK-MEL-2
SNB-19 = test system: SNB-19
UACC-62 = test system: UACC-62
SF-539 = test system: SF-539

Measured: GI50

CCc1ccc(CCN2CCCCC2)nc1
inactive: 786-0 > 100 µM | A549 > 100 µM | BT-549 > 100 µM | DU-145 > 100 µM | EKVX > 100 µM | HCC 2998 > 100 µM | HCT-116 > 100 µM | HOP-92 46.3 µM | IGROV-1 58.9 µM | M14 > 100 µM | MCF7 > 100 µM | MOLT-4 > 100 µM | NCI/ADR-RES > 100 µM | SF-268 > 100 µM | SF-295 > 100 µM | SK-MEL-28 > 100 µM | SK-MEL-2 > 100 µM | SNB-19 > 100 µM | UACC-62 > 100 µM

O=C(NC(=S)Nc1ccc(Br)cc1)c1ccc2c(c1)Sc1ccccc1S2
inactive: 786-0 16.2 µM | A549 21 µM | BT-549 39.1 µM | DU-145 17.3 µM | HCT-116 23.2 µM | HOP-92 15.8 µM | IGROV-1 16.1 µM | M14 12.4 µM | MCF7 32.7 µM | MOLT-4 7.53 µM | NCI/ADR-RES 24.2 µM | SF-268 21.9 µM | SF-295 20.4 µM | SF-539 24.3 µM | SK-MEL-28 78.7 µM | SK-MEL-2 24.5 µM | SNB-19 25.2 µM | UACC-62 27.5 µM

COc1ccc2c(c1)CCN1CCc3cc(OC)c(OC)cc3CC21 (stereo not given)
inactive: 786-0 > 100 µM | A549 > 100 µM | BT-549 10.3 µM | DU-145 > 100 µM | EKVX > 10 µM | HCC 2998 38.3 µM | HCT-116 41.9 µM | HOP-92 89.3 µM | IGROV-1 > 10 µM | M14 58.5 µM | MCF7 90.4 µM | MOLT-4 39.4 µM | NCI/ADR-RES > 100 µM | SF-268 28.9 µM | SF-295 > 100 µM | SF-539 76.4 µM | SK-MEL-28 > 100 µM | SNB-19 82 µM | UACC-62 32.6 µM

O=C(C=P(c1ccccc1)(c1ccccc1)c1ccccc1)c1ccc(-c2cccc([N+](=O)[O-])c2)s1
inactive: 786-0 > 100 µM | A549 57.5 µM | BT-549 > 100 µM | DU-145 > 100 µM | EKVX 57.7 µM | HCC 2998 51.1 µM | HCT-116 61.8 µM | HOP-92 16.4 µM | IGROV-1 50 µM | M14 > 100 µM | MCF7 29.4 µM | MOLT-4 20.6 µM | NCI/ADR-RES 25.8 µM | SF-268 > 100 µM | SF-295 47.4 µM | SF-539 63.4 µM | SK-MEL-28 44 µM | SNB-19 > 100 µM | UACC-62 59 µM

CN(C)/C=[N+]1/[C@@H](Cc2ccccc2)C(=O)O[B-]1(F)c1ccccc1 (stereo not given in full)
inactive: 786-0 > 100 µM | A549 > 100 µM | BT-549 > 100 µM | DU-145 > 100 µM | EKVX > 100 µM | HCC 2998 > 100 µM | HCT-116 > 100 µM | HOP-92 > 100 µM | IGROV-1 > 100 µM | M14 > 100 µM | MCF7 > 100 µM | MOLT-4 > 100 µM | NCI/ADR-RES > 100 µM | SF-268 > 100 µM | SF-295 > 100 µM | SK-MEL-28 > 100 µM | SNB-19 > 100 µM | UACC-62 > 100 µM

C=CCc1cccc2cc(C(=O)NC3CCCCC3)c(=N)oc12
inactive: 786-0 14.5 µM | A549 32.2 µM | BT-549 33.7 µM | DU-145 16.1 µM | EKVX > 100 µM | HCC 2998 16.3 µM | HCT-116 13.9 µM | HOP-92 35 µM | IGROV-1 > 100 µM | M14 18 µM | MCF7 26.2 µM | MOLT-4 > 100 µM | NCI/ADR-RES 27.4 µM | SF-268 17.7 µM | SK-MEL-28 17.3 µM | SK-MEL-2 3.98 µM | SNB-19 21.4 µM | UACC-62 16.3 µM

O=c1cccc2n1CC1CNC[C@H]2C1 [CYTISINICLINE]
inactive: 786-0 > 100 µM | A549 > 100 µM | BT-549 > 100 µM | DU-145 > 100 µM | EKVX > 100 µM | HCC 2998 > 100 µM | HCT-116 > 100 µM | HOP-92 > 100 µM | IGROV-1 > 100 µM | M14 > 100 µM | MCF7 > 100 µM | MOLT-4 > 100 µM | NCI/ADR-RES > 100 µM | SF-268 > 100 µM | SF-295 > 100 µM | SK-MEL-28 > 100 µM | SK-MEL-2 > 100 µM | SNB-19 > 100 µM | UACC-62 > 100 µM

NC(Cc1ccc(S(=O)(=O)O)cc1)C(=O)NC(Cc1ccc(S(=O)(=O)O)cc1)C(=O)NC(Cc1ccc(S(=O)(=O)O)cc1)C(=O)O (stereo not given)
inactive: 786-0 > 100 µM | A549 > 100 µM | BT-549 > 100 µM | DU-145 > 100 µM | EKVX > 100 µM | HCC 2998 > 100 µM | HCT-116 > 100 µM | IGROV-1 > 100 µM | M14 > 100 µM | MCF7 > 100 µM | MOLT-4 > 100 µM | NCI/ADR-RES > 100 µM | SF-268 > 100 µM | SF-295 > 100 µM | SF-539 > 100 µM | SK-MEL-28 > 100 µM | SK-MEL-2 > 100 µM | UACC-62 > 100 µM

O=[N+]([O-])c1cccc2nnccc12
inactive: 786-0 12.6 µM | A549 54.8 µM | BT-549 29.6 µM | DU-145 38.7 µM | EKVX 36.5 µM | HCT-116 12.1 µM | HOP-92 24.2 µM | IGROV-1 24.7 µM | M14 24.3 µM | MCF7 21.1 µM | MOLT-4 28.4 µM | NCI/ADR-RES 34.1 µM | SF-268 25.2 µM | SF-295 42.7 µM | SF-539 48 µM | SK-MEL-2 24.7 µM | SNB-19 35.9 µM | UACC-62 13.6 µM

Cc1[nH]c2[nH]c(=S)nc(NC(N)=S)c2c1Cc1ccccc1
inactive: 786-0 26.8 µM | A549 75.5 µM | BT-549 14.3 µM | DU-145 49.5 µM | EKVX 48.4 µM | HCT-116 31.8 µM | HOP-92 > 100 µM | IGROV-1 59 µM | M14 42.3 µM | MCF7 38.1 µM | MOLT-4 23.4 µM | NCI/ADR-RES 48.8 µM | SF-268 43.8 µM | SF-295 35.2 µM | SF-539 37.2 µM | SK-MEL-28 21.9 µM | SK-MEL-2 93.1 µM | SNB-19 97.9 µM | UACC-62 29.9 µM

O=CN1CCN(C(=O)c2ccc(Cl)c(Cl)c2)C1=S
inactive: 786-0 4.53 µM | A549 17.7 µM | BT-549 18 µM | DU-145 15.7 µM | EKVX 17.5 µM | HCC 2998 18.5 µM | HCT-116 16.3 µM | IGROV-1 15.1 µM | M14 16.8 µM | MCF7 4.63 µM | MOLT-4 22.8 µM | NCI/ADR-RES 32.9 µM | SF-268 22.2 µM | SF-295 17.9 µM | SF-539 20.7 µM | SK-MEL-28 18.2 µM | SK-MEL-2 15.3 µM | SNB-19 17.5 µM | UACC-62 16 µM

O=C1NC(=O)C(C(c2ccc([N+](=O)[O-])cc2)C2C(=O)NC(=O)NC2=O)C(=O)N1
inactive: 786-0 > 100 µM | A549 > 100 µM | BT-549 > 100 µM | DU-145 > 100 µM | HCT-116 > 100 µM | HOP-92 > 100 µM | IGROV-1 > 100 µM | M14 > 100 µM | MCF7 > 100 µM | MOLT-4 > 100 µM | NCI/ADR-RES > 100 µM | SF-268 22.5 µM | SF-295 > 100 µM | SK-MEL-28 > 100 µM | SK-MEL-2 > 100 µM | SNB-19 > 100 µM | UACC-62 > 100 µM

COc1cc(CNc2nc3ccccc3nc2-c2cccs2)cc(OC)c1OC
inactive: 786-0 25.2 µM | A549 18.7 µM | BT-549 3.1 µM | DU-145 44.4 µM | EKVX 29.6 µM | HCC 2998 39.1 µM | HCT-116 22.9 µM | HOP-92 1.26 µM | IGROV-1 20.4 µM | MCF7 21.7 µM | MOLT-4 7.67 µM | NCI/ADR-RES 8.24 µM | SF-268 > 100 µM | SF-295 33.5 µM | SF-539 78.5 µM | SK-MEL-28 32.3 µM | UACC-62 13.7 µM

Cc1nn(-c2ccccc2)c(C)c1/C=N/NC(=O)c1sc(=S)n(-c2ccc(Cl)cc2)c1N
inactive: 786-0 3.89 µM | A549 6.28 µM | BT-549 21.2 µM | DU-145 > 100 µM | EKVX 3.55 µM | HCC 2998 18.8 µM | HCT-116 7.74 µM | IGROV-1 1.49 µM | M14 5.24 µM | MCF7 18 µM | MOLT-4 8.2 µM | NCI/ADR-RES 6.21 µM | SF-268 9.57 µM | SF-295 2.71 µM | SF-539 3.64 µM | SK-MEL-28 5.4 µM | SK-MEL-2 17.3 µM | SNB-19 > 100 µM | UACC-62 5.98 µM

COc1ccc2c(c1)CCC1=C/C(=N\NC(N)=O)CCC12C (stereo not given)
inactive: 786-0 > 10 µM | A549 > 10 µM | BT-549 > 10 µM | DU-145 > 10 µM | HCC 2998 > 10 µM | HCT-116 > 10 µM | HOP-92 > 10 µM | IGROV-1 > 10 µM | M14 > 10 µM | MCF7 > 10 µM | MOLT-4 > 10 µM | NCI/ADR-RES > 10 µM | SF-268 > 10 µM | SF-295 > 10 µM | SF-539 > 10 µM | SK-MEL-28 > 10 µM | SNB-19 > 10 µM | UACC-62 6.41 µM
